# Measured values: US20180040391A1, “GAS-INSULATED MEDIUM-OR HIGH-VOLTAGE ELECTRICAL APPARATUS INCLUDING HEPTAFLUOROISOBUTYRONITRILE AND TETRAFLUOROMETHANE” (General Electric Technology GmbH, priority 2015, published 2018)
# Read-outs that look alike come from different tables or passages of the source.
# Experiments:
# [1] = fluids of WO 2012/080246; cited from earlier work
# [2] = saturated vapor pressure of i-C3F7CN and corresponding pressure raised to 20° C.; type: physicochemical
# Description: However, since equipment is usually filled with gas at ambient temperature, the pressure to which reference is made in order to fill the equipment with heptafluoroisobutyronitrile is the pressure PTfill that corresponds, at the filling temperature, e.g. 20° C., to the PVS presented by said compound at the lowest utilization temperature Tmin of said equipment. This correspondence is given, for each compound, by the formula: […]
# with Tmin expressed in kelvins.
# By way of example, the Table II below gives the saturated vapor pressures, referenced PVSi-C3F7CN and expressed in hectopascals, presented by heptafluoroisobutyronitrile at temperatures of 0° C., −5° C., −10° C., −15° C., −20° C., −25° C., −30° C., −35° C., and −40° C., as well as the pressures, referenced P and expressed in hectopascals, which correspond to those saturated vapor pressures raised to 20° C.
# [3] = boiling point (ASTM D1120-94); type: physicochemical; conditions: at 1013 hPa
# Description: (i) a boiling point of −4.7° C. at 1013 hectopascals (hPa) (boiling point measured in accordance with ASTM D1120-94 “Standard Test Method of Boiling Point of Engine Coolants”);
# (i′) a boiling point of −127.8° C. at 1013 hPa (boiling point measured in accordance with ASTM D1120-94);
SMILES,boiling point [1] [°C],PVSi-C3F7CN saturated vapor pressure ([2]; 0° C.) [hPa],Pi-C3F7CN pressure corresponding to the saturated vapor pressure raised to 20° C. ([2]; PVS at 0° C. raised to 20° C.) [hPa],Pi-C3F7CN pressure corresponding to the saturated vapor pressure raised to 20° C. ([2]; PVS at −5° C. raised to 20° C.) [hPa],Pi-C3F7CN pressure corresponding to the saturated vapor pressure raised to 20° C. ([2]; PVS at −10° C. raised to 20° C.) [hPa],Pi-C3F7CN pressure corresponding to the saturated vapor pressure raised to 20° C. ([2]; PVS at −15° C. raised to 20° C.) [hPa],Pi-C3F7CN pressure corresponding to the saturated vapor pressure raised to 20° C. ([2]; PVS at −20° C. raised to 20° C.) [hPa],Pi-C3F7CN pressure corresponding to the saturated vapor pressure raised to 20° C. ([2]; PVS at −25° C. raised to 20° C.) [hPa],Pi-C3F7CN pressure corresponding to the saturated vapor pressure raised to 20° C. ([2]; PVS at −30° C. raised to 20° C.) [hPa],Pi-C3F7CN pressure corresponding to the saturated vapor pressure raised to 20° C. ([2]; PVS at −35° C. raised to 20° C.) [hPa],Pi-C3F7CN pressure corresponding to the saturated vapor pressure raised to 20° C. ([2]; PVS at −40° C. raised to 20° C.) [hPa],PVSi-C3F7CN saturated vapor pressure ([2]; −5° C.) [hPa],PVSi-C3F7CN saturated vapor pressure ([2]; −10° C.) [hPa],PVSi-C3F7CN saturated vapor pressure ([2]; −15° C.) [hPa],PVSi-C3F7CN saturated vapor pressure ([2]; −20° C.) [hPa],PVSi-C3F7CN saturated vapor pressure ([2]; −25° C.) [hPa],PVSi-C3F7CN saturated vapor pressure ([2]; −30° C.) [hPa],PVSi-C3F7CN saturated vapor pressure ([2]; −35° C.) [hPa],PVSi-C3F7CN saturated vapor pressure ([2]; −40° C.) [hPa],boiling point [3] [°C]
O=C(C(F)(F)F)C(F)(C(F)(F)F)C(F)(F)F [fluoroketone C5],23,–,–,–,–,–,–,–,–,–,–,–,–,–,–,–,–,–,–,–
"N#CC(F)(C(F)(F)F)C(F)(F)F [i-C3F7CN, 2,3,3,3-tetrafluoro-2-trifluoromethyl propanenitrile]",–,1177,1264,1058,877,720,583,466,368,286,218,968,788,634,504,395,305,232,173,−4.7
O=C(C(F)(F)C(F)(F)F)C(F)(C(F)(F)F)C(F)(F)F [fluoroketone C6],49,–,–,–,–,–,–,–,–,–,–,–,–,–,–,–,–,–,–,–
